What was measured:
pTBK1 = pTBK1 level with and without UVB exposure (Example 111); format: cell-based; conditions: varying concentrations of compound, alone or after UVB exposure (FIGS. 4B and 4C)
[1] = test system: interferon-stimulated gene (ISG) response; experiment: In vivo decitabine challenge model in BALB/c mice; conditions: decitabine i.p. 5 mg/kg, RNAseq
Experimental: Thirty 9-11 week old BALB/c mice were acclimated to the lab for at least 5 days. Compounds 2, 40 and 67 were prepared in a 20% PEG400 (pH 3.5) solution for p.o. administration, compounds were prepared no more than 30 minutes prior to daily dosing. Decitabine (Sigma) was dissolved in sterile PBS (pH 7.4) and dosed within 30 minutes of preparation of the solution. Doses of both the compound and decitabine were administered once a day, every day from Day 0 to day 4. On Day 0, mice were split into […] of five mice and given their first dose of decitabine (i.p., 5 mg/kg) and compound. Dosing groups were as in the following table (all doses in mg/kg): [table] Decitabine (i.p., 5 mg/kg) and compounds 2, 40 or 67 were administered daily from […] to Day 4. All mice were euthanized 1 hour after the last dose administration on Day 4. Spleen and kidneys were harvested and snap frozen in liquid nitrogen, and plasma (EDTA) was collected for bioanalysis. Total RNA was isolated using the PureLink RNA Mini Kit (ThermoFisher) and prepared for RNAseq using the TruSeq Stranded mRNA platform (Illumina). 50M Stranded reads were collected on an Illumina HiSeq system. Data were analyzed as follows: RNA sequencing reads were aligned to the […] reference genome using the STAR RNA-seq aligner (Dobin et al., 2013). Expression of each transcript was quantified using Salmon (Patro, et al. 2015) TPM values for each transcript. These transcript-level TPM values were aggregated by gene to get gene-level TPM values, and log-transformed these values. Mouse orthologs for each gene in the list of ISG-associated genes in the human genome from Liu et al., 2019 using Ensembl BioMart (Kinsella et al., 2011) were identified. The ISG score for each sample was calculated as the median log-transformed TPM value across all genes in this ISG gene set.

human PBMC = experiment: Decitabine-stimulated human PBMC assay; format: cell-based; conditions: PBMCs, 5 days; for IFN-β production: anti-CD3/anti-CD28, decitabine 10 μM, FIGS. 3A and 3B
Experimental: EasySep buffer (32 mL, […] Technologies, cat. #20144) was used to dilute 8 mL of LRSC buffy coat (from fresh Leukopak) with gentle mixing. The diluted buffy coat (20 mL) was transferred into each of two SepMate 50 tubes, and the tubes were filled with 15 mL of Lyphoprep ([…], cat. #07851) density gradient. The SepMate tubes were then centrifuged at 1200 G for 10 minutes at room temperature with the brake on. The top layer of supernatant was collected in SepMate tubes by quickly pouring it into a new 50 mL conical tube. The PBMCs were washed with EasySep buffer×2 by centrifuging at 300 G for 5 minutes. The cells were resuspended in 30 mL of EasySep and centrifuged at 100 G for 5 minutes with the brake off, and the platelets were removed. The cells were then resuspended in 6 mL of 1×RBC lysis buffer (Invitrogen) and incubated at 37° C. for 5 minutes. 25 mL of EasySep buffer was then mixed into the tube and centrifuged at 300 G for 5 minutes. The cells were resuspended in 10 mL of EasySep buffer and the cells were then counted with Cellometer (AO/PI). The PBMCs were resuspended in RPMI1640 (ThermoFisher)+ 10% FBS (HyClone)+μ/s at 3×10^6/mL. The PBMCs (100 μL, 300 k PBMCs) were then seeded in a 96-well flat bottom microplate (Corning) that had been precoated with 100 μL of anti-CD3 antibody (10 μg/mL in PBS, Biolegend) or PBS at 4° C., one day before the assay was commenced.
To each well the following solutions were added 1) 100 μL of cells (final cell number per well is 3×10^5 cell/well); 2) 25 μL of anti-CD28 antibody at 6× (5 μg/mL final concentration, Biolegend); 3) 25 μL of decitabine at 6× (10 μM final concentration); and 4) Compound in DMSO was dispensed directly into each well with a d300e digital dispenser (Tecan). The final concentration of DMSO for each well was normalized to 0.3%. The plate was incubated at 37° C. without any agitation for 5 days. Samples were collected 120 hours after incubation to determine IFN-β […] levels using a U-PLEX Human IFN-β Assay Sector (5PL) (MSD, cat. #K151VIK-2).
After 5 days, the plate was spun down at 100×G for 5 minutes. Supernatants (100 μL) were collected for interferon R (IFN-0) analysis using the MSD assay noted above, and any residual supernatant was stored at −80° C.

7S mitochondria DNA = experiment: Mitochondria DNA assay with PC3 cells; format: cell-based; conditions: Homo sapiens, PC-3, 120 h, 5 days, 7S mitochondria DNA level by qPCR relative to 18S or GAPDH
Experimental: Exemplary compounds were tested for their effect on levels of 7S mitochondria DNA, and the DNA of housekeeping genes 18S and GAPDH. Reduction of 7S mitochondria DNA indicates off-target inhibition of mitochondrial DNA synthesis, which leads to mitochondrial toxicity. Assay procedures and results are described below.
PC3 cells were purchased from ATCC and cultured in F-12 Kaighn's modified medium (Hyclone), 10% heat-inactivated fetal bovine serum (Gibco), 1% Penicillin-Streptomycin (Invitrogen). PC3 cells were treated with a dose titration of a test compound on 6 well plates for 5 days at 37° C., 5% CO2 in a humidified incubator.
Cells were harvested and mitochondria DNA extraction was performed using DNeasy Blood & Tissue Kit (Qiagen) according to the manufacture's instruction.
Mitochondria 7S and housekeeping genes 18S and GAPDH DNA was quantified by multiplex qPCR with the PowerUp™ SYBR™ Green system (Applied Biosystems). Prepare reaction mix consisting of 5 μl of 2× PowerUp™ SYBR™ Green Master Mix, 1 μl of 5 μM Primers for 7S, 18S, or GAPDH, 4 μl of DNA template from DNA extraction above. The primer sequences are below:
qPCR was performed on QuantStudio™ 7 Flex RealTime qPCR system (Applied Biosystems) as set forth below: • a. 50° C. for 2 minutes, then • b. 95° C. for 2 minutes, then • c. 95° C. for 15 seconds, then • d. 60° C. for 60 seconds, • where then steps (c) and (d) were repeated 60 times.
Threshold was calculated by QuantStudio™ 7 Flex Software (ThermoFisher Scientific) using the default settings. Ct values were used to evaluate the relative mitochondria DNA (mtDNA) level using the following formula: ΔCt=Ct (7S target gene)−Ct (18S) or ΔCt=Ct (7S target gene)−Ct (GAPDH). Relative mtDNA level=2^−Δct. Expression fold over DMSO control=2^−Δct (compound treated group)/2^−Δct (DMSO group)
In the table “A” represents values≤0.1 μM; “B” represents values from >0.1 μM to ≤1.0 μM; “C” represents values from >1.0 μM to ≤10.0 μM; “D” represents values from >10.0 μM to ≤100.0 μM; and “E” represents values>100.0 μM.

| IC50 (7S mitochondria DNA) | Compound | level of pTBK1 (pTBK1) | change in the ISG Score in the spleen and kidney ([1]; compound 100 mg/kg p.o. daily) | IFN-β production (human PBMC) | cell viability (human PBMC; decitabine 10 μM) | change in the ISG Score in the spleen and kidney ([1]; compound 30 mg/kg p.o. daily) |
| --- | --- | --- | --- | --- | --- | --- |
| ≤ 0.1 µM | Nc1nc(=O)n([C@H]2C[C@H](O)[C@](CO)(CCl)O2)cc1F [Compound 14, 4-amino-1-((2R,4S,5R)-5-(chloromethyl)-4-hydroxy-5-(hydroxymethyl)tetrahydrofuran-2-yl)-5-fluoropyrimidin-2(1H)-one] | varies in a dose-dependent fashion |  |  |  |  |
| > 100 µM | [N-]=[N+]=N[C@]1(CO)O[C@@H](n2cc(F)c(N)nc2=O)C[C@@H]1O [Compound 61, 4-amino-1-((2R,4S,5R)-5-azido-4-hydroxy-5-(hydroxymethyl)tetrahydrofuran-2-yl)-5-fluoropyrimidin-2(1H)-one] |  |  |  |  |  |
| > 100 µM | Nc1nc(=O)n([C@@H]2O[C@@](CO)(CCl)[C@@H](O)[C@@H]2F)cc1F [Compound 67, 4-amino-1-[(2R,3S,4R,5R)-5-(chloromethyl)-3-fluoro-4-hydroxy-5-(hydroxymethyl)oxolan-2-yl]-5-fluoropyrimidin-2-one] |  | show a change in the ISG Score in the spleen and kidney |  |  | show a change in the ISG Score in the spleen and kidney |
| ≤ 0.1 µM | Nc1nc(=O)n([C@H]2C[C@H](O)[C@](CO)(CBr)O2)cc1F [Compound 88, 4-amino-1-((2R,4S,5R)-5-(bromomethyl)-4-hydroxy-5-(hydroxymethyl)tetrahydrofuran-2-yl)-5-fluoropyrimidin-2(1H)-one] |  |  |  |  |  |

More lines, now with the values behind:

| Compound | IC50 (7S mitochondria DNA) | level of pTBK1 (pTBK1) | change in the ISG Score in the spleen and kidney ([1]; compound 100 mg/kg p.o. daily) | IFN-β production (human PBMC) | cell viability (human PBMC; decitabine 10 μM) | change in the ISG Score in the spleen and kidney ([1]; compound 30 mg/kg p.o. daily) |
| --- | --- | --- | --- | --- | --- | --- |
| Nc1ccn([C@H]2C[C@H](O)[C@](CO)(CCl)O2)c(=O)n1 [Compound 2, 4-amino-1-((2R,4S,5R)-5-(chloromethyl)-4-hydroxy-5-(hydroxymethyl)tetrahydrofuran-2-yl)pyrimidin-2(1H)-one] | ≤ 0.1 µM | varies in a dose-dependent fashion | show a change in the ISG Score in the spleen and kidney | showed inhibition of IFN-β |  |  |
| C#C[C@]1(CO)O[C@@H](n2cnc3c(N)nc(Cl)nc32)C[C@@H]1O [Compound 25] | > 100 µM |  |  | activated production of IFN-β |  |  |
| Nc1ccn([C@@H]2O[C@@](CO)(CCl)[C@@H](O)[C@@H]2F)c(=O)n1 [Compound 40, 4-amino-1-((2R,3S,4R,5R)-5-(chloromethyl)-3-fluoro-4-hydroxy-5-(hydroxymethyl)tetrahydrofuran-2-yl)pyrimidin-2(1H)-one] | > 100 µM | varies in a dose-dependent fashion | show a change in the ISG Score in the spleen and kidney | showed inhibition of IFN-β | some cell viability losses at higher concentrations |  |
| CC[C@]1(CO)O[C@@H](n2ccc(N)nc2=O)C[C@@H]1O [Compound 44, 4-amino-1-((2R,4S,5R)-5-ethyl-4-hydroxy-5-(hydroxymethyl)tetrahydrofuran-2-yl)pyrimidin-2(1H)-one] | > 100 µM | varies in a dose-dependent fashion |  |  |  |  |

Reference: US12187758B2 (ROME Therapeutics, Inc., priority 2022, dated 2025)
